One assay concerns Staphylococcus aureus. In kind it is cell-based.
For another assay, the system named is B. anthracis. In kind it is cell-based, Bacillus anthracis.
The test system of a further assay is B. cereus strains. In kind it is cell-based.
The next assay concerns E. coli. It counts as cell-based, Escherichia coli.
The next assay has as its system B. thuringiensis. In kind it is cell-based.
A further assay relates to Citrobacter freundii. In kind it is cell-based.
A further assay relates to Klebsiella pneumoniae. In kind it is cell-based.
In the next assay the test system is B. subtilis. In kind it is cell-based.
The subject of a further assay is B. megaterium. In kind it is cell-based.
For another assay, the system named is mold colonies. It counts as cell-based.
Assay [1] relates to 13 diverse bacterial stock species. It counts as cell-based.
Assay [2] has as its system non-anthracis gram positive species. In kind it is cell-based.

On to `O=C([O-])CN(CCN(CC(=O)O)CC(=O)O)CC(=O)[O-].[Na+].[Na+]` [EDTA, disodium ethylenediaminetetraacetate], for which, in the assay on Staphylococcus aureus, the “effect on Staphylococcus aureus growth” value is “no effect”. In addition, the “effect on B. anthracis growth” value in the assay with B. anthracis was “undesirably inhibiting”.

As to `CO/N=C(\C(=O)N[C@@H]1C(=O)N2C(C(=O)O)=C(COC(C)=O)CS[C@H]12)c1csc(N)n1` [cefotaxime], the “growth of some strains of B. cereus” value with B. cereus strains is listed as “grow to form colonies”. Also, the “growth of Staphylococcus aureus” value in the assay on Staphylococcus aureus is given as “inhibited”. Further, in the assay on E. coli, the “growth of E. coli” value was “inhibited”. Besides, the “growth of B. thuringiensis” value in the assay on B. thuringiensis is listed as “inhibited”. The “growth of Citrobacter freundii” value in the assay on Citrobacter freundii was “inhibited”. The “growth of Klebsiella pneumoniae” value with Klebsiella pneumoniae is “inhibited”. The “appearance of B. anthracis colonies” value in the assay on B. anthracis is given as “failed to appear”. Besides, the “growth of B. subtilis” value in the assay on B. subtilis is reported as “inhibited”. In the assay on B. megaterium, the “growth of B. megaterium” value is “inhibited”.

Consider `C[C@@H]1C[C@@H]([C@H](O)CC2CC(=O)NC(=O)C2)C(=O)[C@@H](C)C1` [cycloheximide], for which the “effect on mold contamination” value with mold colonies is “eliminated all mold contamination”. Moreover, the “effect on pattern of bacterial growth” value in assay [1] was “did not alter the pattern of bacterial growth”.

In the case of `[H]/N=C(/N)N[C@H]1[C@H](O)[C@@H](O)[C@H](O[C@@H]2O[C@@H](C)[C@](O)(C=O)[C@H]2O[C@@H]2O[C@@H](CO)[C@H](O)[C@@H](O)[C@@H]2NC)[C@@H](N/C(N)=N\[H])[C@@H]1O` [streptomycin], the “growth of E. coli strains” value in the assay on E. coli is given as “inhibited”.

Take `CC(=O)[O-].[Tl+]` [thallous acetate]: the “susceptibility of Staphylococcus aureus” value in the assay on Staphylococcus aureus was “completely resistant”. In [2], the “restriction of growth of non-anthracis gram positive species including some B. cereus strains” value was “not sufficiently restrictive” and the “restriction of non-anthracis gram positive spore forming species (including some B. cereus strains)” value is listed as “adequately restrictive”. Besides, in the assay with B. anthracis, the “B. anthracis growth and colony formation” value is “allowed B. anthracis to grow readily and form colonies”; the “delay of appearance of visible B. anthracis colonies” value is “delayed approximately one day”.

Consider lysostaphin, for which the “effect on Staphylococcus aureus growth” value in the assay on Staphylococcus aureus is reported as “severely retarded”. In addition, the “effect on B. anthracis growth” value with B. anthracis is “without affecting”.

For polymyxin B sulfate, the “growth of E. coli strains” value in the assay with E. coli is recorded as “not inhibited”.
